Patent US8415376B2, “Inhibitors of PI3 kinase” (Amgen Inc., priority 2008, dated 2013)

Columns and labels:
PI3Kα = molecular target: T1, PI3Kα (Homo sapiens, UniProt P42336); assay: In vitro PI3K AlphaScreen assay; assay type: biochemical; settings: average if run more than once
T1 construct: Full length p110 subunits of PI3K α, β and δ, N-terminally labeled with polyHis tag; polyHis (N); made in house; host or cells: Sf9 insect cells (baculovirus)
Method: In Vitro PI3K Alphascreen® Assay
The PI3K AlphaScreen® assay (PerkinElmer, Waltham, Mass.) measures the activity of a panel of four phosphoinositide 3-kinases: PI3Kα, PI3Kβ, PI3Kγ, and PI3Kδ. Each of these enzymes phosphorylates the 3′-hydroxyl group on phosphatidylinositiol (4,5)-bisphosphate (PIP2) to produce phosphatidylinositol (3,4,5)-trisphosphate (PIP3). This phosphorylation activity is measured using a GST-tagged PIP3 binding protein (Echelon Biosciences, Salt Lake City, Utah), an anti-GST-tagged Acceptor bead, and streptavidin-Donor bead. […] In the absence of this interaction, proximity of the Donor and Acceptor beads is decreased, producing a loss of luminescent signal which is inversely proportional to PI3K activity.
The enzyme reaction buffer is made using sterile water (Baxter, Deerfield, Ill.) and 50 mM Tris HCl pH 7, 14 mM MgCl2, 2 mM sodium cholate, and 100 mM NaCl. 2 mM DTT is added fresh the day of the experiment. The AlphaScreen® reaction buffer is made using sterile water and 10 mM Tris HCl pH 7.5, 150 mM NaCl, 0.10% Tween 20, and 30 mM EDTA. 1 mM DTT is added fresh the day of the experiment.
The source plates for this assay are 384-well Greiner clear polypropylene plates containing test compounds at 5mM and diluted 1:2 over 22 points. […] Source plates are replicated into 384-well Optiplates (PerkinElmer, Waltham, Mass.), 0.5 μL/well, to make assay-ready plates.
The different PI3K isoforms are each diluted in enzyme reaction buffer to 2× working solutions. […] Two different 2× substrate solutions are made in enzyme reaction buffer. In one solution, PI(4,5)P2 (Echelon Biosciences, Salt Lake City, Utah) is diluted to 10 μM and ATP is diluted to 20 μM. This solution is used in the assays testing PI3Kα and PI3Kβ. In a second solution, PI(4,5)P2 is diluted to 10 μM and ATP is diluted to 8 μM. This solution used in the assays testing PI3Kγ and PI3Kδ.
The AlphaScreen® reaction solutions are made using beads from the anti-GST AlphaScreen® kit (PerkinElmer, Waltham, Mass.). Two solutions are made in Alphascreen reaction buffer to 4× working concentrations. In one solution, biotinylated-IP4 (Echelon Biosciences, Salt Lake City, Utah) is diluted to 40 nM and streptavadin-Donor Beads are diluted to 80 μg/mL. In the second solution, PIP3-binding protein (Echelon Biosciences, Salt Lake City, Utah) is diluted to 40 nM and anti-GST-Acceptor Beads are diluted to 80 μg/mL. 10 μL/well of enzyme reaction buffer is added to Column 24 of the assay ready plates in place of enzyme. This is done for plates in the PI3Kα, β, and 67 assays.
Using a 384-well dispensing Multidrop (Titertek, Huntsville, Ala.), 10 μL/well of 2× enzyme (PI3Kα, β, δ) is added to Columns 1-23 of the appropriate assay ready plates (for PI3Kγ 10 μL is added to Columns 1-24). 10 μL/well of the appropriate substrate solution (the solution with 20 μM ATP for PI3Kα and β assays, and the solution with 8 μM ATP for PI3Kγ and δ assays) is then added to Columns 1-24 of the plates. Plates are then incubated at room temperature for 20 minutes.
In the dark, 10 μL/well of the Donor Bead solution is added to Columns 1-24 of the plates to quench the enzyme reaction. The plates are incubated at room temperature for 30 minutes. Still in the dark, 10 μL/well of the Acceptor Bead solution is also added to Columns 1-24 of the plates. The plates are then incubated in the dark for 1.5 hours. The plates are read on an Envision Multilabel Plate Reader (PerkinElmer, Waltham, Mass.) with a 680 nm excitation filter and a 520-620 nm emission filter.

mTOR = molecular target: T2, mTOR (Homo sapiens, UniProt P42345); assay: In vitro mTOR assay (Lanthascreen); assay type: biochemical; settings: average if run more than once
T2 construct: purchased Invitrogen (Carlsbad, Calif.)
T2 sequence (P42345 1360-2549 limits assumed): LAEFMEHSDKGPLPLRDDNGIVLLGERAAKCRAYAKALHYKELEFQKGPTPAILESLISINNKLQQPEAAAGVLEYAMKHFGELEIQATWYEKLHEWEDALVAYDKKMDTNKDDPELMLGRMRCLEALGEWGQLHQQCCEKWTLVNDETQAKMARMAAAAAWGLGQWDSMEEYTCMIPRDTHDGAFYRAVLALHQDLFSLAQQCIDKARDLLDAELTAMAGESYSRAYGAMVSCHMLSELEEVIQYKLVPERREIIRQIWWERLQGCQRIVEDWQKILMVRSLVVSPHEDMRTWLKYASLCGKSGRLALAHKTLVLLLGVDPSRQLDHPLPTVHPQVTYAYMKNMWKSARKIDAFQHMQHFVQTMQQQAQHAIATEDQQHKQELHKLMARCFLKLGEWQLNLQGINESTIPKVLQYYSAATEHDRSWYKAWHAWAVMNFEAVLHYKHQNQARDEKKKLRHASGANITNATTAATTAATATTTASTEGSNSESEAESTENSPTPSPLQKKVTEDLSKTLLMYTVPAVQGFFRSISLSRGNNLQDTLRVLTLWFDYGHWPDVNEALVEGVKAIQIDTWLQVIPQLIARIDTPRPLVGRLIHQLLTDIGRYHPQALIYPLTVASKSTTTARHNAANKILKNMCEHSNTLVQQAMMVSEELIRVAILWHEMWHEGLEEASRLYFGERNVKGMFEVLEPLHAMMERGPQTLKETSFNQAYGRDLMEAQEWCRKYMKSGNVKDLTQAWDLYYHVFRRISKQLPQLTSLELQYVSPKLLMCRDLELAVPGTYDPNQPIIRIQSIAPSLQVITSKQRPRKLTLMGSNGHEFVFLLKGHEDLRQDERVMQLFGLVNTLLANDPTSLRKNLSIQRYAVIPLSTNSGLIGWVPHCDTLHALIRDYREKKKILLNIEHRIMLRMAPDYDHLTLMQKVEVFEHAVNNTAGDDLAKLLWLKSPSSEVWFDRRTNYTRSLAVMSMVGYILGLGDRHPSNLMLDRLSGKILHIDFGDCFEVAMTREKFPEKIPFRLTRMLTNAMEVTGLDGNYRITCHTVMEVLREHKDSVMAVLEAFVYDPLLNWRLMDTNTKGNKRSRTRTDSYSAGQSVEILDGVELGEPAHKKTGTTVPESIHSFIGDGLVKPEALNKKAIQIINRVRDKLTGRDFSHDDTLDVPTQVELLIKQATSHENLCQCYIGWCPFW
Method in brief: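 mTOR activity measured by TR-FRET as Thr46 phosphorylation of GFP-4E-BP1, detected with Tb-labelled anti-phospho-4E-BP1 [T46] antibody after EDTA stop. Final 50 ng/mL mTOR, 400 nM GFP-4E-BP1, 7 μM ATP in HEPES pH 7.5 with 10 mM MnCl2; 1 h, room temperature. 10-point 1:3 compound series.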

[1] = tested on: phosphorylation of Akt at Serine 473; assay: pAkt AlphaScreen (U87 cell); assay type: cell-based; settings: Homo sapiens, U-87 MG; U87 MG cells, pAkt Ser473; average
Method: pAkt Alphascreen (U87 Cell)
The pAkt AlphaScreen® assay (PerkinElmer, Waltham, Mass.) determines whether there is phosphorylation of Akt at Serine 473 by recruitment of a phosphospecific antibody. This assay was performed using U87 MG cells. The U87 growth media consists of MEM (Gibco, Carlsbad, Calif.) supplemented with 10% FBS (Gibco,), 1× Non-Essential Amino Acids (Gibco,) and 1× Penicillin/Streptomycin/Glutamine (Gibco). The cells were maintained weekly using 0.05% Trypsin (Gibco) and replated in 150 mm TC-Treated Culture Dishes (Corning, Corning, N.Y.).
The first day of the assay, the adherent cells were trypsinized, media was added to the loose cells and cells were mixed to a homogenous mixture. 0.5 ml of the homogenous mixture was counted on the Beckman Coulter® Vi-CELL™ XR (Fullerton, Calif.). 50 frames of cells were counted and the number of viable cells was determined. The cells were then diluted to 0.25 million cells per ml, and centrifuged at 200 rcf for 5 minutes. The media was removed and the cells were reconstituted in fresh media for plating. The cells were plated at 20 μl per well on the PerkinElmer® FlexDrop PLUS in Low Volume 384 Well White Tissue Culture Plates (Corning) with a final cell density of 5K cells per well. The plates were incubated overnight at 37° Celsius, 5% CO2.
On the second day, the compound plates were prepared, the cells were treated with compound and the pAkt reaction mix was added to the cell lysate. 384 well compound plates were prepared containing 1 μl of compound per well starting at 5 mM and diluted 1:2 across the row, resulting in a 22 well serial dilution. 39 μl of growth media was added to the compound plate in rows 1-22 using the PerkinElmer® FlexDrop PLUS resulting in a DMSO concentration of 2.5%. The cell plates and diluted compound plates were put onto the VELOCITY11™ VPREP™ 384 ST where the compound plate was mixed and 5 μl of serially diluted compound or controls was added to the cell plate. The final concentration of the compounds was 25 μM serially diluted to 11.9 pM in 0.5% DMSO. The cell plates were then incubated with compound for two hours at 37° Celsius, 5% CO2. After two hours, the media in the cell plates was aspirated using the BioTek® ELx405HT plate washer (Winooski, Vt.) removing the majority of media and compound without disturbing the adherent U87 cells. The following assay reagents are components of the SureFire® Akt (Ser 473) Phosphorylation 50K Point Kit (TGR BioSciences, Adelaide, Austalia) and an IgG Detection Kit (PerkinElmer, Waltham, Mass.). 5 μl of 1× Lysis Buffer was added to each well using the PerkinElmer® FlexDrop PLUS. The plates were then incubated at room temperature on a shaker for ten minutes. The AlphaScreen® reaction was prepared under low light conditions (subdued or green light) including p-Akt (Ser 473) Reaction Buffer, Dilution Buffer, Activation Buffer, Acceptor Beads and Donor Beads at a ratio of 40:20:10:1:1 respectively. The AlphaScreen® reaction was added to the cell lysate at 6 μl per well using the PerkinElmer® FlexDrop PLUS. The plates were placed in a humid environment to reduce edge effects and incubated overnight at room temperature with restricted air flow in the dark.
On the final day of the experiment, the plates were read on the PerkinElmer® EnVision™ 2103 Multilable Reader using the standard AlphaScreen® readout. The POC is calculated and the data is analyzed to report the IC50 IP for pAkt at Serine 473.
Activity data for the compounds tested in the PI3K cell based Akt assay is provided in Table 2 under the column heading U87

T1 sequence (P42336 whole entry): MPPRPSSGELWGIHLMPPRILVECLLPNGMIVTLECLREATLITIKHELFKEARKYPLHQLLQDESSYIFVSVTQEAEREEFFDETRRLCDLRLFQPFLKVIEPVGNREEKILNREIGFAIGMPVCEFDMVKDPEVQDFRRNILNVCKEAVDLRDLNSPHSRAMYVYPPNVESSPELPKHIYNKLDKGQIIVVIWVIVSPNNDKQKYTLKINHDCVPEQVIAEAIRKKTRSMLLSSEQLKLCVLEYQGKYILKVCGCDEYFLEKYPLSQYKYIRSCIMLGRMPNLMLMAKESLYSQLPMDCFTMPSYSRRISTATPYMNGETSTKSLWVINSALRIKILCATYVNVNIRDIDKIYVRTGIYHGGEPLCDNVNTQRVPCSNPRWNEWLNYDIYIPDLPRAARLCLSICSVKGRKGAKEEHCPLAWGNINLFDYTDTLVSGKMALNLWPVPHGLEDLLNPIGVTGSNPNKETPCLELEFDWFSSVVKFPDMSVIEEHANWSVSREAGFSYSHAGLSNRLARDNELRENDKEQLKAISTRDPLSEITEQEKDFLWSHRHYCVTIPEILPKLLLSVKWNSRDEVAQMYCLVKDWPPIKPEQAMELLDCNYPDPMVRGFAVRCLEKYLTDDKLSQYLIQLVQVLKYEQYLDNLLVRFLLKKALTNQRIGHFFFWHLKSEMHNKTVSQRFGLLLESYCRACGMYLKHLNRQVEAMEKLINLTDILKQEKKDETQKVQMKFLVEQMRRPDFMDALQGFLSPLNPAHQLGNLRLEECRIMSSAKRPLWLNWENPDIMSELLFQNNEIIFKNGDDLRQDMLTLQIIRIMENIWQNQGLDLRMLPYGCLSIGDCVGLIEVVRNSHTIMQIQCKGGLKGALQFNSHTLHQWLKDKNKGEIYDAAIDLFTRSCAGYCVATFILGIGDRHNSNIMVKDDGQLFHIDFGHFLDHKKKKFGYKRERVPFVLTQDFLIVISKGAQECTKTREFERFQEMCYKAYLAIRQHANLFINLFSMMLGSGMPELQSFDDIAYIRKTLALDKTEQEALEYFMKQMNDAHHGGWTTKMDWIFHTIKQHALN
T1 sequence (P27986 whole entry partner): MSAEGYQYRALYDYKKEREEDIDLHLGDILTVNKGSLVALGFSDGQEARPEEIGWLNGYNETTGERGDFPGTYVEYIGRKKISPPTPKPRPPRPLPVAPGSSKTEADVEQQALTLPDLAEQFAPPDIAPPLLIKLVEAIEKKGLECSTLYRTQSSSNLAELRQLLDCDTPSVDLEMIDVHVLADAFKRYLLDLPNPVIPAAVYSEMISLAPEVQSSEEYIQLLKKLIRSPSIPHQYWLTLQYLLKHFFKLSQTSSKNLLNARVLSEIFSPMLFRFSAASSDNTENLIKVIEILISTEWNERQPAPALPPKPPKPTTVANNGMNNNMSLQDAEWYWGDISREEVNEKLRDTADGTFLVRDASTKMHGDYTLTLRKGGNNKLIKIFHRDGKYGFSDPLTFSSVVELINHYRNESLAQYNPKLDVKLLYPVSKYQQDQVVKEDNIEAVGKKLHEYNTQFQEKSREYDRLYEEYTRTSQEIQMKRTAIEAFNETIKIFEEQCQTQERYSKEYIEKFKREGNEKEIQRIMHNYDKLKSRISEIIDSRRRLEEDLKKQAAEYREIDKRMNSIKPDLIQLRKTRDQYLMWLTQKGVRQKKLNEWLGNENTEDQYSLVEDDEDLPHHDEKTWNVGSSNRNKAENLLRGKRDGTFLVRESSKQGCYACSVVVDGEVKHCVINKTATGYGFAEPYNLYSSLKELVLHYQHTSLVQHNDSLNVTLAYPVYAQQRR

| SMILES | Ki (PI3Kα) | IC50 (mTOR) | IC50 [1] |
| --- | --- | --- | --- |
| COc1ccc(OC)c(CNc2ccnc3ccc(-c4cnc(Cl)c(NS(C)(=O)=O)c4)cc23)c1 [Example 87, N-(2-chloro-5-(4-((2,5-dimethoxybenzyl)amino)-6-quinolinyl)-3-pyridinyl)methanesulfonamide] | 0.0332 µM | 0.295 µM | 1.42 µM |
| CS(=O)(=O)Nc1cc(-c2ccc3nccc(NC4CCNCC4)c3c2)cnc1Cl [Example 88, N-(2-chloro-5-(4-(4-piperidinylamino)-6-quinolinyl)-3-pyridinyl)methanesulfonamide] | 0.161 µM | 1.77 µM | 6.84 µM |
| CC1(C)CN(c2ccnc3ccc(-c4cnc(Cl)c(NS(C)(=O)=O)c4)cc23)CCO1 [Example 90, N-(2-chloro-5-(4-(2,2-dimethyl-4-morpholinyl)-6-quinolinyl)-3-pyridinyl)methanesulfonamide] | 0.0107 µM | 0.0044 µM | 0.0484 µM |
| CS(=O)(=O)Nc1cc(-c2ccc3ncc(N4CCOCC4)nc3c2)cnc1Cl [Example 92, N-(2-chloro-5-(3-(4-morpholinyl)-6-quinoxalinyl)-3-pyridinyl)methanesulfonamide] | 0.0028 µM | 0.0283 µM | 0.084 µM |
| O=S(=O)(Nc1cc(-c2ccc3nccc(-c4ccnc(Cl)c4)c3c2)cnc1Cl)c1ccc(F)cc1 [Example 94, N-(2-chloro-5-(4-(2-chloro-4-pyridinyl)-6-quinolinyl)-3-pyridinyl)-4-fluorobenzenesulfonamide] | 0.0013 µM | 0.0006 µM | 0.0053 µM |
| C[C@@H]1CN(c2ccnc3ccc(-c4cnc(Cl)c(NS(=O)(=O)c5ccc(F)cc5)c4)cc23)C[C@H](C)O1 [Example 96, N-(2-chloro-5-(4-((2R,6S)-2,6-dimethyl-4-morpholinyl)-6-quinolinyl)-3-pyridinyl)-4-fluorobenzenesulfonamide] | 0.0068 µM | 0.011 µM | 0.0375 µM |
| O=S(=O)(Nc1cc(-c2ccc3nccc(N4CCOCC4)c3c2)cnc1Cl)c1cccnc1 [Example 101, N-(2-chloro-5-(4-(4-morpholinyl)-6-quinolinyl)-3-pyridinyl)-3-pyridinesulfonamide] | 0.0027 µM | 0.0036 µM | 0.0762 µM |
| CN(C)c1ccc(-c2ccnc3ccc(-c4cnc(Cl)c(NS(=O)(=O)c5ccc(F)cc5)c4)cc23)cc1 [Example 102, N-(2-chloro-5-(4-(4-(dimethylamino)phenyl)-6-quinolinyl)-3-pyridinyl)-4-fluorobenzenesulfonamide] | 0.0013 µM | 0.0153 µM | 0.0641 µM |
| C[C@@H]1CN(c2ccnc3ccc(-c4cnc(Cl)c(NS(C)(=O)=O)c4)cc23)C[C@H](C)O1 [Example 103, N-(2-chloro-5-(4-((2R,6S)-2,6-dimethyl-4-morpholinyl)-6-quinolinyl)-3-pyridinyl)methanesulfonamide] | 0.0032 µM | 0.0102 µM | 0.0556 µM |
| Cc1cc(-c2ccnc3ccc(-c4cnc(Cl)c(NS(C)(=O)=O)c4)cc23)ccn1 [Example 105, N-(2-chloro-5-(4-(2-methyl-4-pyridinyl)-6-quinolinyl)-3-pyridinyl)methanesulfonamide] | 0.0015 µM | 0.0015 µM | 0.0085 µM |
| COc1cc(-c2ccnc3ccc(-c4cnc(Cl)c(NS(C)(=O)=O)c4)cc23)ccn1 [Example 106, N-(2-chloro-5-(4-(2-methoxy-4-pyridinyl)-6-quinolinyl)-3-pyridinyl)methanesulfonamide] | 0.0019 µM | 0.0034 µM | 0.0259 µM |
| CS(=O)(=O)Nc1cc(-c2ccc3nccc(C4=CCOCC4)c3c2)cnc1Cl [Example 107, N-(2-chloro-5-(4-(3,6-dihydro-2H-pyran-4-yl)-6-quinolinyl)-3-pyridinyl)methanesulfonamide] | 0.0017 µM | 0.004 µM | 0.0198 µM |
| O=S(=O)(Nc1cc(-c2ccc3nccc(OC4CCSC4)c3c2)cnc1Cl)c1ccc(F)cc1 (stereo not drawn) [Example 108, N-(2-chloro-5-(4-(tetrahydro-3-thiophenyloxy)-6-quinolinyl)-3-pyridinyl)-4-fluorobenzenesulfonamide] | 0.0023 µM | 0.0079 µM | 0.306 µM |
| C[C@H]1CN(c2ccnc3ccc(-c4cnc(Cl)c(NS(C)(=O)=O)c4)cc23)C[C@H](C)O1 [Example 109, N-(2-chloro-5-(4-((2S,6S)-2,6-dimethyl-4-morpholinyl)-6-quinolinyl)-3-pyridinyl)methanesulfonamide] | 0.0032 µM | 0.0137 µM | 0.0214 µM |
| C[C@@H]1CN(c2ccnc3ccc(-c4cnc(Cl)c(NS(C)(=O)=O)c4)cc23)C[C@@H](C)O1 [Example 110, N-(2-chloro-5-(4-((2R,6R)-2,6-dimethyl-4-morpholinyl)-6-quinolinyl)-3-pyridinyl)methanesulfonamide] | 0.0063 µM | 0.0051 µM | 0.0141 µM |
| CS(=O)(=O)Nc1cc(-c2ccc3nccc(-c4ccnc(C(F)(F)F)c4)c3c2)cnc1Cl [Example 111, N-(2-chloro-5-(4-(2-(trifluoromethyl)-4-pyridinyl)-6-quinolinyl)-3-pyridinyl)methanesulfonamide] | 0.003 µM | 0.0028 µM | 0.0261 µM |
| CS(=O)(=O)Nc1cc(-c2ccc3nccc(-c4ccc(C(F)(F)F)nc4)c3c2)cnc1Cl [Example 112, N-(2-chloro-5-(4-(6-(trifluoromethyl)-3-pyridinyl)-6-quinolinyl)-3-pyridinyl)methanesulfonamide] | 0.0021 µM | 0.0021 µM | 0.0091 µM |
| O=S1(=O)CCC(COc2ccnc3ccc(-c4cnc(Cl)c(NS(=O)(=O)c5ccc(F)cc5)c4)cc23)CC1 [Example 113, N-(2-Chloro-5-(4-((tetrahydro-2H-thiopyran-1,1-dioxide-4-yl)methoxy)quinolin-6-yl)pyridin-3-3-yl)-4-fluorobenzenesulfonamide] | 0.0016 µM | 0.0146 µM | 0.0444 µM |
| CS(=O)(=O)Nc1cc(-c2ccc3nccc(-c4cccnc4)c3c2)cnc1Cl [Example 116, N-(2-Chloro-5-(4-(pyridin-3-yl)quinolin-6-yl)pyridin-3-yl)methanesulfonamide] | 0.0013 µM | 0.0029 µM | 0.019 µM |
| CS(=O)(=O)Nc1cc(-c2ccc3nccc(-c4cccnc4)c3c2)cnc1-c1cccnc1 [Example 117, N-(5-(4-(Pyridin-3-yl)quinolin-6-yl)-2,3′-bipyridin-3-yl)methanesulfonamide] | 0.0053 µM | 0.0015 µM | 0.255 µM |
| CS(=O)(=O)Nc1cc(-c2ccc3nccc(-c4ccncc4)c3c2)cnc1Cl [Example 118, N-(2-Chloro-5-(4-(pyridin-4-yl)quinolin-6-yl)pyridin-3-yl)methanesulfonamide] | 0.0011 µM | 0.0012 µM | 0.0127 µM |
| COc1ncc(-c2ccc3nccc(N4CCOCC4)c3c2)cc1NS(C)(=O)=O [Example 119, N-(2-Methoxy-5-(4-morpholinoquinolin-6-yl)pyridin-3-yl)methanesulfonamide] | 0.0047 µM | 0.0176 µM | 0.0448 µM |
